# Test results as given in patent publication US9284321B2, “Piperazino[1,2-a]indol-1-ones and [1,4]diazepino[1,2-a]indol-1-one” (Hoffmann-La Roche Inc., priority 2012, dated 2016).
# Test system: not given
# Experiment: not given
# Conditions: not given
row,melting point,SMILES
1,237 °C,"O=C1NCCCn2c1cc1cc(Cl)cc(-c3ccc(Cl)cc3)c12 [Example 53, 9-Chloro-7-(4-chloro-phenyl)-2,3,4,5-tetrahydro-[1,4]diazepino[1,2-a]indol-1-one]"
2,218 °C,"COc1ccc(-c2cc(Cl)cc3cc4n(c23)CCCNC4=O)cc1 [Example 54, 9-Chloro-7-(4-methoxy-phenyl)-2,3,4,5-tetrahydro-[1,4]diazepino[1,2-a]indol-1-one]"
3,231 °C,"Cc1cc(-c2ccc(F)c(F)c2)c2c(c1)cc1n2CCCNC1=O [Example 55, 7-(3,4-Difluoro-phenyl)-9-methyl-2,3,4,5-tetrahydro-[1,4]diazepino[1,2-a]indol-1-one]"
4,208 °C,"COc1ccc(-c2cc(C)cc3cc4n(c23)CCCNC4=O)cc1 [Example 56, 7-(4-Methoxy-phenyl)-9-methyl-2,3,4,5-tetrahydro-[1,4]diazepino[1,2-a]indol-1-one]"
5,234.5 °C,"Cc1cc(-c2ccc(F)cc2)c2c(c1)cc1n2CCCNC1=O [Example 57, 7-(4-Fluoro-phenyl)-9-methyl-2,3,4,5-tetrahydro-[1,4]diazepino[1,2-a]indol-1-one]"
6,258.5 °C,"Cc1cc(-c2ccc(Cl)cc2)c2c(c1)cc1n2CCCNC1=O [Example 58, 7-(4-Chloro-phenyl)-9-methyl-2,3,4,5-tetrahydro-[1,4]diazepino[1,2-a]indol-1-one]"
7,269 °C,"Cc1cc(-c2ccc(Cl)cc2)c2c(c1)cc1n2CCNC1=O [Example 59, 6-(4-Chloro-phenyl)-8-methyl-3,4-dihydro-2H-pyrazino[1,2-a]indol-1-one]"
8,249.5 °C,"Cc1cc(-c2ccc(F)c(F)c2)c2c(c1)cc1n2CCNC1=O [Example 60, 6-(3,4-Difluoro-phenyl)-8-methyl-3,4-dihydro-2H-pyrazino[1,2-a]indol-1-one]"
9,245 °C,"COc1ccc(-c2cc(C)cc3cc4n(c23)CCNC4=O)cc1 [Example 61, 6-(4-Methoxy-phenyl)-8-methyl-3,4-dihydro-2H-pyrazino[1,2-a]indol-1-one]"
10,257 °C,"Cc1cc(-c2ccc(F)cc2)c2c(c1)cc1n2CCNC1=O [Example 62, 6-(4-Fluoro-phenyl)-8-methyl-3,4-dihydro-2H-pyrazino[1,2-a]indol-1-one]"
11,212 °C,"CN1CCn2c(cc3cc(F)cc(-c4ccc(F)cc4)c32)C1=O [Example 63, 8-Fluoro-6-(4-fluoro-phenyl)-2-methyl-3,4-dihydro-2H-pyrazino[1,2-a]indol-1-one]"
12,235.5 °C,"Cc1c2n(c3c(-c4ccc(F)c(F)c4)cc(Cl)cc13)CCNC2=O [Example 64, 8-Chloro-6-(3,4-difluoro-phenyl)-10-methyl-3,4-dihydro-2H-pyrazino[1,2-a]indol-1-one]"
13,236.5 °C,"Cc1c2n(c3c(-c4ccc(Cl)cc4)cc(Cl)cc13)CCNC2=O [Example 65, 8-Chloro-6-(4-chloro-phenyl)-10-methyl-3,4-dihydro-2H-pyrazino[1,2-a]indol-1-one]"
14,227.5 °C,"Cc1c2n(c3c(-c4ccc(F)cc4)cc(Cl)cc13)CCNC2=O [Example 66, 8-Chloro-6-(4-fluoro-phenyl)-10-methyl-3,4-dihydro-2H-pyrazino[1,2-a]indol-1-one]"
15,264 °C,"COc1ccc(-c2cc(Cl)cc3c(C)c4n(c23)CCNC4=O)cc1 [Example 67, 8-Chloro-6-(4-methoxy-phenyl)-10-methyl-3,4-dihydro-2H-pyrazino[1,2-a]indol-1-one]"

# Test system: human embryonic stem cell derived neural stem cells (NSCs)
# Experiment: Neural Stem Cell Proliferation Assay (neurogenesis assay, ATP levels by CellTiterGlo)
# Assay type: cell-based
# Conditions: 96 h, compound concentration at which 150% activity of control (100%) is reached, NSC proliferation by ATP level after 4 days incubation, dose response 8 μM to 8 nM
# Experimental: Neurogenic properties of small molecules are determined based on the proliferation of human embryonic stem cell derived neural stem cells (NSCs) which were derived via a dual smad inhibition as previously described (Chambers, S. M., et al., Highly efficient neural conversion of human ES and iPS cells by dual inhibition of SMAD signaling, Nature biotechnology, 2009. 27(3): p. 275-80.)
# Compounds respond is measured by the increase in cells based on ATP levels
# (Promega:CellTiterGlo®) after an incubation period of 4 days.
# NSCs are thawed and expanded over 3 passages. On the 14th day, NSCs are seeded in Polyornithin/Laminin coated 384 well plates at a cell density of 21′000 cells/cm^2 in a media volume of 38 μl.
# 4 hours after cell seeding, compound solutions are added at a volume of 2 μl. Stock solutions of the compounds (water, 5% DMSO) are diluted to obtain a dose response (11 points, dilution factor is 2), ranging from 8 μM to 8 nM. Controls are run to consistently determine the neurogenic properties of the cells:
# Negative (neutral) control is cell culture Media (final DMSO concentration: 0.25%).
# • 1. cell culture Media+100 ng/ml FGF2 (final DMSO concentration: 0.1%) • 2. cell culture Media+20 ng/ml EGF (final DMSO concentration: 0.1%) • 3. cell culture Media+100 ng/ml Wnt3a (final DMSO concentration: 0.1%)
# After 4 days incubation at 37° C., 5% CO2, the amount of ATP per well is quantified. The ATP concentration is proportional to the cell number. ATP is quantified by using the Promega CellTiterGlo® kit. The CellTiterGlo® reagents contain a cell lysis buffer, a thermo stable luciferase (UltraGlo™ recombinant luciferase), magnesium and luciferin. Luciferin reacts with ATP producing oxyluciferin, AMP and light. The luminescence signal is proportional to the ATP content.
# The value of negative (neutral) control is determined for each assay plate by taking the average of 16 negative control wells. The neurogenic compound response is calculated for each compound as (compound/Negative Control)*100.
# The values of EC150 from the dose response curve are determined for each test compound. The EC150 is the compound concentration at which 150% activity of control (100%) is reached.
row,SMILES,EC (150% of control)
1,"O=C1NCCCn2c1cc1cc(Cl)cc(-c3ccc(Cl)cc3)c12 [Example 53, 9-Chloro-7-(4-chloro-phenyl)-2,3,4,5-tetrahydro-[1,4]diazepino[1,2-a]indol-1-one]",0.15 µM
2,"COc1ccc(-c2cc(Cl)cc3cc4n(c23)CCCNC4=O)cc1 [Example 54, 9-Chloro-7-(4-methoxy-phenyl)-2,3,4,5-tetrahydro-[1,4]diazepino[1,2-a]indol-1-one]",0.07 µM
3,"Cc1cc(-c2ccc(F)c(F)c2)c2c(c1)cc1n2CCCNC1=O [Example 55, 7-(3,4-Difluoro-phenyl)-9-methyl-2,3,4,5-tetrahydro-[1,4]diazepino[1,2-a]indol-1-one]",2.8 µM
4,"COc1ccc(-c2cc(C)cc3cc4n(c23)CCCNC4=O)cc1 [Example 56, 7-(4-Methoxy-phenyl)-9-methyl-2,3,4,5-tetrahydro-[1,4]diazepino[1,2-a]indol-1-one]",0.35 µM
5,"Cc1cc(-c2ccc(F)cc2)c2c(c1)cc1n2CCCNC1=O [Example 57, 7-(4-Fluoro-phenyl)-9-methyl-2,3,4,5-tetrahydro-[1,4]diazepino[1,2-a]indol-1-one]",1.44 µM
6,"Cc1cc(-c2ccc(Cl)cc2)c2c(c1)cc1n2CCCNC1=O [Example 58, 7-(4-Chloro-phenyl)-9-methyl-2,3,4,5-tetrahydro-[1,4]diazepino[1,2-a]indol-1-one]",1.51 µM
7,"Cc1cc(-c2ccc(Cl)cc2)c2c(c1)cc1n2CCNC1=O [Example 59, 6-(4-Chloro-phenyl)-8-methyl-3,4-dihydro-2H-pyrazino[1,2-a]indol-1-one]",0.18 µM
8,"Cc1cc(-c2ccc(F)c(F)c2)c2c(c1)cc1n2CCNC1=O [Example 60, 6-(3,4-Difluoro-phenyl)-8-methyl-3,4-dihydro-2H-pyrazino[1,2-a]indol-1-one]",0.71 µM
9,"COc1ccc(-c2cc(C)cc3cc4n(c23)CCNC4=O)cc1 [Example 61, 6-(4-Methoxy-phenyl)-8-methyl-3,4-dihydro-2H-pyrazino[1,2-a]indol-1-one]",0.059 µM
10,"Cc1cc(-c2ccc(F)cc2)c2c(c1)cc1n2CCNC1=O [Example 62, 6-(4-Fluoro-phenyl)-8-methyl-3,4-dihydro-2H-pyrazino[1,2-a]indol-1-one]",0.32 µM
11,"CN1CCn2c(cc3cc(F)cc(-c4ccc(F)cc4)c32)C1=O [Example 63, 8-Fluoro-6-(4-fluoro-phenyl)-2-methyl-3,4-dihydro-2H-pyrazino[1,2-a]indol-1-one]",0.6 µM
12,"Cc1c2n(c3c(-c4ccc(F)c(F)c4)cc(Cl)cc13)CCNC2=O [Example 64, 8-Chloro-6-(3,4-difluoro-phenyl)-10-methyl-3,4-dihydro-2H-pyrazino[1,2-a]indol-1-one]",0.12 µM
13,"Cc1c2n(c3c(-c4ccc(Cl)cc4)cc(Cl)cc13)CCNC2=O [Example 65, 8-Chloro-6-(4-chloro-phenyl)-10-methyl-3,4-dihydro-2H-pyrazino[1,2-a]indol-1-one]",0.019 µM
14,"Cc1c2n(c3c(-c4ccc(F)cc4)cc(Cl)cc13)CCNC2=O [Example 66, 8-Chloro-6-(4-fluoro-phenyl)-10-methyl-3,4-dihydro-2H-pyrazino[1,2-a]indol-1-one]",0.047 µM
15,"COc1ccc(-c2cc(Cl)cc3c(C)c4n(c23)CCNC4=O)cc1 [Example 67, 8-Chloro-6-(4-methoxy-phenyl)-10-methyl-3,4-dihydro-2H-pyrazino[1,2-a]indol-1-one]",0.008 µM
